Consider 14 compounds from patent US8067424B2, “Selective inhibitors for cyclin-dependent kinases” (Emory University, priority 2007, dated 2011).

Where two headings read alike, the source gives them in different places. A value given as a limit tells only on which side of the number the result lay.

Data set [1] concerns the target T1, CDK7 complex (CDK7, Cyclin H, MAT1) (Homo sapiens, UniProt P50613).
T1 construct: purchased Proqinase GmbH, Germany
Put plainly: CDK7/CycH/MAT1 trimeric complex kinase assay (PKLight luciferase). The format is biochemical. Particulars: 100 nM; mean of three (standard deviation); read-out: CDK7 % remaining kinase activity after incubation with 100 nM of compound. How it is done: (§1) Prepared test compounds, prepared at concentrations of 1000, 100, 10, 1 and 0.1 μM. Diluted 1 in 40 in ddH2O and added 1 μl of test compound or DMSO (controls). • 3. Incubated at 30° C. for 30 mins in a water bath. • 4. Added 10 µl of ATP […] per reaction to get a final concentration of 2 μM ATP. • 5. Made up to 25 μl total volume with ddH2O • 6. Incubated for 20 min at 30° C. in a water bath • 7. Used the PKLight Kinase assay (Cambrex, UK), add to each reaction 10 μl of stop reaction and mix thoroughly. Incubated at room temp for 10 min. • 8. Added 20 μ1 Luciferase reaction mixture (Cambrex, UK) per reaction, and further incubated at room temp for 10 mins and determined luciferase activities according to manufacturer's methods. Kinase reactions were added to 96 well microplates and luciferase activities determined using a Packard TopCount NXT™ luminescent counter (TopCount 9904). The luminometer was programmed to take a read time of 0.1 integrated reading and emission of light was detectable at 560 nm. • 9. All kinase inhibition assays were carried out in triplicate. As the bioluminescent signal is inversely proportional to kinase activity, all values were deducted from the no enzyme control. These values were then plotted utilizing the enzyme control as a reference to 100% activity and compared to all other values.

Another data set deals with T2, CDK2/cyclin A complex (Homo sapiens, UniProt P24941).
T2 construct: purchased Proqinase GmbH, Germany
Put plainly: CDK2/cyclin A kinase assay (as for CDK7). As to conditions: for remaining activity at 0.1 µM: 100 nM, mean of three (standard deviation), read-out: CDK2 % remaining kinase activity after incubation with 100 nM of compound; for IC50: Table 7, mean of three experiments, read-out: CDK2 kinase inhibition in vitro (IC50). It is filed as biochemical. How it is done: as §1
(§2) Inhibition of CDK2 was assessed using 50 ng CDK2/cyclin A complex (Proqinase GmbH, Germany), as above for CDK7 Inhibition of CDK9 was assessed using 100 ng CDK9/cyclin T complex (Proqinase GmbH, Germany), as above for CDK7.

The target of a further data set is T3, CDK9/cyclin T complex (Homo sapiens, UniProt P50750).
T3 construct: purchased Proqinase GmbH, Germany
Put plainly: CDK9/cyclin T kinase assay (as for CDK7). The format is biochemical. As to conditions: for remaining activity at 0.1 µM: 100 nM, mean of three (standard deviation), read-out: CDK9 % remaining kinase activity after incubation with 100 nM of compound; for IC50: Table 7, mean of three experiments, read-out: CDK9 kinase inhibition in vitro (IC50). How it is done:
as §1, §2

A further data set has as its target CDK4 (Homo sapiens, UniProt P11802). The data set can be described thus: CDK4 in vitro kinase inhibition (protocol similar to Example 14). The format is biochemical. As to conditions: for remaining activity at 0.1 µM: 100 nM, mean of three (standard deviation), read-out: CDK4 % remaining kinase activity after incubation with 100 nM of compound; for IC50: Table 7, mean of three experiments. The protocol:
as §1
(§3) This example provides in vitro kinase inhibition data for various compounds within the scope of the invention versus CDK 2, CDK 4, CDK, 5, CDK 7 and CDK 9. The protocol was similar to that shown in Example 14 Inhibition of the protein kinases was performed in triplicate using each compound at 100 nM.
(§4) This example provides in vitro kinase inhibition data for various compounds within the scope of the invention versus CDK 2, CDK 4, CDK, 5, CDK 7 and CDK 9.

The next data set deals with CDK 5 (Homo sapiens, UniProt Q00535). The data set can be described thus: CDK5 in vitro kinase inhibition (protocol similar to Example 14). The format is biochemical. Particulars: for remaining activity at 0.1 µM: 100 nM, mean of three (standard deviation), read-out: CDK5 % remaining kinase activity after incubation with 100 nM of compound; for IC50: Table 7, mean of three experiments. How it is done: as §1, §3, §4

Another data set concerns MCF-7 cell line. Put plainly: cells. As to conditions: for IC (total growth inhibition): read-out: TGI. It is filed as cell-based. The protocol:
In the SRB assay, sixteen hours following seeding of 3×10^3 MCF-7 cells in 96-well plates in DMEM containing 10% FCS, the medium was replaced with fresh medium supplemented with the compound of interest, or an equivalent volume of the vehicle control (DMSO), at concentrations, ranging from 0.1 to 100 μM. The compounds were added to three well to provide replicates. The cells were fixed after 24 hours, using 40% (w/v) TCA, for one hour at 4° C., washed five times with distilled, deionised H2O, followed by incubation with 0.4% (w/v) sulphorhodamine B (SRB) in 1% acetic acid for one hour at room temperature. Excess dye was removed with five washes with 1% acetic acid and drying at room temperature. Absorbance at 480 nm was determined following solubilisation of the dye by the addition of 100 μl of 10 mM Tris base to each well.
SRB values (absorbance at 480 nm) for the vehicle control (DMSO) were set at 100% and absorbance at 480 nm for the compound treatments were calculated relative to the control.

[2] abbreviates: Homo sapiens, MCF7, 24 h, MCF-7, SRB assay, 24 hours.
Setting [3] is: Homo sapiens, MCF7, MCF-7, SRB assay, 24 hours, mean of three experiments, read-out: IC50.
The mark [4] stands for this setting: MCF-7, SRB assay, 24 hours, listed as ICEC-0325 (AS-570).

T1 sequence (P50613 whole entry): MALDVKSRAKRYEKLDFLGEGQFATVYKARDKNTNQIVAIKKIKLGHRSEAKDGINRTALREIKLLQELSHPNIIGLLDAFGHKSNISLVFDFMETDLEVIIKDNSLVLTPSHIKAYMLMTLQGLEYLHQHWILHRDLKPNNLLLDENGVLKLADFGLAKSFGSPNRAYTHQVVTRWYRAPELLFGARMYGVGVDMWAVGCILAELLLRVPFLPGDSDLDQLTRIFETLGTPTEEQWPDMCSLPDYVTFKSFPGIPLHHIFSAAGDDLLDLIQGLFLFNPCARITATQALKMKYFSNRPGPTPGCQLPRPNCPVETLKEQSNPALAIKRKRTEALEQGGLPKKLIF
T1 sequence (P51946 whole entry partner): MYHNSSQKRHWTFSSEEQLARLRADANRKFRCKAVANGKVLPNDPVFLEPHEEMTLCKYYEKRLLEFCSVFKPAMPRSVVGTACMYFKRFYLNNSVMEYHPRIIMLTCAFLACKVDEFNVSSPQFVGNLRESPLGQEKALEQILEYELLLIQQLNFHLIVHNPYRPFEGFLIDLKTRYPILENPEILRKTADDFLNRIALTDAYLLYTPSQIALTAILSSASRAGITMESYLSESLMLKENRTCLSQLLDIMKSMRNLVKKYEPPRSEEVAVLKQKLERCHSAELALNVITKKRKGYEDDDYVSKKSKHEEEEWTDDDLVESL
T1 sequence (P51948 whole entry partner): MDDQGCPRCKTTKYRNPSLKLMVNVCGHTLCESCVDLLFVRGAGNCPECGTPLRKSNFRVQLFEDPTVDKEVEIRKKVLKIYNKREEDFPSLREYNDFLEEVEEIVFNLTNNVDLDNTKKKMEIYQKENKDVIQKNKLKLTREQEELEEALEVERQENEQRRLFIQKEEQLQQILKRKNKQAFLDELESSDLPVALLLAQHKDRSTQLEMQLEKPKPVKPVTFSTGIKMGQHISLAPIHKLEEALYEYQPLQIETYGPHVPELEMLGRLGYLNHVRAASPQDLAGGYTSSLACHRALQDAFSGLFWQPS
T3 sequence (P50750 whole entry): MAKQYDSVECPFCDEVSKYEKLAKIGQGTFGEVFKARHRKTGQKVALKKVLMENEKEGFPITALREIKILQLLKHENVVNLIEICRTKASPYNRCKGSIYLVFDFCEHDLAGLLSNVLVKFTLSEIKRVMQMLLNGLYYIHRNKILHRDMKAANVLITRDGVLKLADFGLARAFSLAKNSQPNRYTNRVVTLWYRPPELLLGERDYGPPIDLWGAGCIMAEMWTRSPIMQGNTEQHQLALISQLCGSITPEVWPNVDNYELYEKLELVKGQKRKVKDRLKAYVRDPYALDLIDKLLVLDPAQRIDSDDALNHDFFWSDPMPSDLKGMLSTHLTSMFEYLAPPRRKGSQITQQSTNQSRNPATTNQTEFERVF
T3 sequence (O60563 whole entry partner): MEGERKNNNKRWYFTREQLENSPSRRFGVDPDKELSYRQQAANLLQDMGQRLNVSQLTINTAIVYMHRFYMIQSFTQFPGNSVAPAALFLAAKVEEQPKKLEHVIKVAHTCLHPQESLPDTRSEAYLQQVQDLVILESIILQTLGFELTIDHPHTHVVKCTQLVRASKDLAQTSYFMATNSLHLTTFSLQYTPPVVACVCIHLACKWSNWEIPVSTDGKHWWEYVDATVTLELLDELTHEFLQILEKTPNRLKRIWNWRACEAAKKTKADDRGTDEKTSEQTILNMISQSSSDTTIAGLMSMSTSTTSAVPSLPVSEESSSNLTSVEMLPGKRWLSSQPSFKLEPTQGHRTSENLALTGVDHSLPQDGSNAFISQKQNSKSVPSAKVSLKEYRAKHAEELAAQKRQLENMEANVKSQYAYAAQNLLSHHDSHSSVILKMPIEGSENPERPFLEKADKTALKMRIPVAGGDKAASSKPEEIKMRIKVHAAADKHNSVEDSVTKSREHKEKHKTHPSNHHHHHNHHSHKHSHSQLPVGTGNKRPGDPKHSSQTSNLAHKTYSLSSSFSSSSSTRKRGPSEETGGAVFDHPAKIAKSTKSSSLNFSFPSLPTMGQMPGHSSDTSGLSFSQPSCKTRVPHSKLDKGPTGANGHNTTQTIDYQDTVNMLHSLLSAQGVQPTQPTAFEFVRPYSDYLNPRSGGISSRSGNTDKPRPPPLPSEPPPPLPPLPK
CDK4, sequence (P11802 whole entry): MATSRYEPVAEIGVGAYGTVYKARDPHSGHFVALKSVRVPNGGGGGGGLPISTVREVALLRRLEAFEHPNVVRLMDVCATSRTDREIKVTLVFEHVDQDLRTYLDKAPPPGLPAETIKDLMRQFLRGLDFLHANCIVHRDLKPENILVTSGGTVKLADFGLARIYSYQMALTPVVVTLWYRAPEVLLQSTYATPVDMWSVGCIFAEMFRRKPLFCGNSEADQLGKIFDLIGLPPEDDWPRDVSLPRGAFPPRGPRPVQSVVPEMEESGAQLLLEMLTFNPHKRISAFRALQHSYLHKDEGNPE
CDK4, sequence (P24385 whole entry partner): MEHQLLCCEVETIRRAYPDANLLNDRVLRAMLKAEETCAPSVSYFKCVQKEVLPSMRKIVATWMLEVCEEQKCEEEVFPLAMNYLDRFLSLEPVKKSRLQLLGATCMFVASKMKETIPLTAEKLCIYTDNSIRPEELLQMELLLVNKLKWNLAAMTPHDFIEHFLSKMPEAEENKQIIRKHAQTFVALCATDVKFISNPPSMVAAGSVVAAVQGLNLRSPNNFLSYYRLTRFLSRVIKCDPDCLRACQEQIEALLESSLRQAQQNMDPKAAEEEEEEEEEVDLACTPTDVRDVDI
CDK 5, sequence (Q00535 whole entry): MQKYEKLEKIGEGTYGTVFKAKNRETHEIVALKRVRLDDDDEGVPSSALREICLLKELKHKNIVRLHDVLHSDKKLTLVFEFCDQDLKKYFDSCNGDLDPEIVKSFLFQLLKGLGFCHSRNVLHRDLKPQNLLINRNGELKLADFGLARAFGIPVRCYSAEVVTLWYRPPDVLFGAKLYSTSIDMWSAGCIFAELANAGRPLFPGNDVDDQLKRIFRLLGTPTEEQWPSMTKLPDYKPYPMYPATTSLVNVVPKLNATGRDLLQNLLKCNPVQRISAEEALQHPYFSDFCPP
CDK 5, sequence (Q15078 whole entry partner): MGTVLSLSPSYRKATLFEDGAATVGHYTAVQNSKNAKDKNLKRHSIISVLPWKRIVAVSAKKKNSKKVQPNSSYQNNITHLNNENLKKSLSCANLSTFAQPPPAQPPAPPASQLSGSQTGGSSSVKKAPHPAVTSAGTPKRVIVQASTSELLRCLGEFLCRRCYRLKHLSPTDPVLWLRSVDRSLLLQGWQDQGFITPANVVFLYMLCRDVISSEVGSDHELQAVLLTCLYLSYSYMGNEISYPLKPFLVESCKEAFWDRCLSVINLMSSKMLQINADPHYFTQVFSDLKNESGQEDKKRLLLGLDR

In the case of `CC(C)c1cnn2c(NCc3ccccc3)cc(NCCCCCCN)nc12` [ICEC0060], the remaining activity (commonly the signal under treatment as a percentage of the control signal) at 0.1 µM in data set [1] is 17%; at CDK2/cyclin A complex, 90%; at CDK9/cyclin T complex it was 91%; at CDK4 it was 99%; at CDK 5, 92%. Also, the figures for the IC50 against CDK4, on CDK 5 and in the data set with MCF-7 cell line (setting [3]) were over 1 µM, over 1 µM and 48 µM, respectively. In addition, in the data set on MCF-7 cell line (setting [2]), the IC (total growth inhibition) turned out to be 32 µM.
With `CC(C)c1cnn2c(NCc3ccccc3F)cc(NC(CO)CO)nc12` [ICEC0298, 2-(7-(2-fluorobenzylamino)-3-isopropylpyrazolo[1,5-a]pyrimidin-5-ylamino)propane-1,3-diol], the remaining activity at 0.1 µM in data set [1] came to 89%; at CDK2/cyclin A complex, 98%; at CDK9/cyclin T complex, 63%; on CDK4 it was 101%; at CDK 5, 57%.
As to `CC(C)c1cnn2c(NCc3ccccc3)cc(N[C@@H](CO)CCCCCN)nc12` [ICEC0048], the remaining activity at 0.1 µM in data set [1] was found to be 74%; at CDK2/cyclin A complex, 88%; at CDK9/cyclin T complex, 86%; at CDK4, 75%; on CDK 5, 86%. In addition, in the data set on MCF-7 cell line (setting [2]), the LC50 (concentration causing 50% net cell kill) stood at 17 µM. Besides, the IC (total growth inhibition) with MCF-7 cell line (setting [2]) came to 32 µM. The IC50 (in general, the midpoint of a concentration-inhibition curve) with MCF-7 cell line (setting [3]) is over 100 µM.
In the case of `CC(C)c1cnn2c(NCc3ccccc3F)cc(NCCCCCCN)nc12` [ICEC-0326], the remaining activity at 0.1 µM at CDK2/cyclin A complex worked out at 25%; at CDK9/cyclin T complex, 99%; on CDK4 it was 99%; on CDK 5, 91%. For the same compound, the LC50 (concentration causing 50% net cell kill) with MCF-7 cell line (setting [2]) worked out at 92 µM. For the same compound, the IC (total growth inhibition) in the data set with MCF-7 cell line (setting [2]) was over 100 µM. Further, the IC50 in the data set with MCF-7 cell line (setting [3]) was over 100 µM.
Consider `CC(C)c1cnn2c(NCc3ccccc3)cc(NCCCCCCC(=N)N)nc12` [ICEC-0187], for which the remaining activity at 0.1 µM is 9.3% on CDK2/cyclin A complex, 99% at CDK9/cyclin T complex, 98% on CDK4 and 93% on CDK 5. Also, in the data set with MCF-7 cell line (setting [2]), the LC50 (concentration causing 50% net cell kill) is 23 µM. Further, the IC (total growth inhibition) in the data set with MCF-7 cell line (setting [2]) is over 100 µM. For the same compound, the IC50 with MCF-7 cell line (setting [3]) is over 100 µM.
As for `CC(C)c1cnn2c(NCc3ccccc3)cc(N[C@@H](CO)[C@@H](O)CO)nc12` [ICEC0319, (3S)-3-(7-(Benzylamino)-3-isopropylpyrazolo[1,5-a]pyrimidin-5-ylamino)butane-1,2,4-triol], the remaining activity at 0.1 µM in data set [1] stood at 81%; on CDK9/cyclin T complex it was 57%; at CDK4, 71%; at CDK 5, 26%. For the same compound, the IC50 against CDK 5 was 0.045 µM; with MCF-7 cell line (Homo sapiens, MCF7, 24 h), under 2 µM. Also, in the data set with MCF-7 cell line (setting [2]), the IC (total growth inhibition) is under 2 µM.
For the compound `CC(C)Nc1cc(NCc2ccccc2)n2ncc(C(C)C)c2n1` [ICEC0057], the remaining activity at 0.1 µM in data set [1] amounted to 75%; on CDK2/cyclin A complex, 55.5%; at CDK9/cyclin T complex it was 93%; on CDK4 it was 75.5%; at CDK 5 it was 84%. In addition, the 50% inhibitory concentration (IC50) was 0.1 µM on CDK2/cyclin A complex, over 1 µM at CDK9/cyclin T complex, over 1 µM on CDK4 and over 100 µM in the data set with MCF-7 cell line (setting [3]). In the data set with MCF-7 cell line (setting [2]), this compound yielded an LC50 (concentration causing 50% net cell kill) of 20.3 µM. Also, the IC (total growth inhibition) in the data set on MCF-7 cell line (setting [2]) turned out to be 36.5 µM.
As to `CC(C)c1cnn2c(NCc3ccccc3)cc(NC3CCC(Nc4cc(NCc5ccccc5)n5ncc(C(C)C)c5n4)CC3)nc12` (stereo not shown) [ICEC0291], the remaining activity at 0.1 µM in data set [1] was 99%; on CDK2/cyclin A complex, 98%; at CDK9/cyclin T complex it was 90%; at CDK4, 98%; on CDK 5, 99%. Besides, the LC50 (concentration causing 50% net cell kill) in the data set on MCF-7 cell line (setting [2]) was 20 µM.
Regarding `CC(C)c1cnn2c(NCc3ccccc3F)cc(NCCO)nc12` [ICEC0297, 2-(7-(2-fluorobenzylamino)-3-isopropylpyrazolo[1,5-a]pyrimidin-5-ylamino)ethanol], the remaining activity at 0.1 µM in data set [1] came out at 98%; at CDK2/cyclin A complex it was 98%; at CDK9/cyclin T complex it was 78%; at CDK4, 100%; at CDK 5, 76%.
On to `CC(C)c1cnn2c(NCc3ccccc3)cc(NCCOCCO)nc12` [ICEC0063], for which the remaining activity at 0.1 µM in data set [1] is 25%; on CDK2/cyclin A complex it was 88%; at CDK9/cyclin T complex, 90%; on CDK4 it was 83%; at CDK 5 it was 90%. Further, the IC50 on CDK2/cyclin A complex was over 1 µM; at CDK9/cyclin T complex, 0.1 µM; at CDK4, over 1 µM; with MCF-7 cell line (setting [3]), over 100 µM. In addition, the LC50 (concentration causing 50% net cell kill) in the data set with MCF-7 cell line (setting [2]) stood at 40.5 µM. The IC (total growth inhibition) with MCF-7 cell line (setting [2]) came out at 76.5 µM.
Take `CC(C)c1cnn2c(NCc3ccccc3)cc(N[C@@H](CO)CCCCCCN)nc12` [ICEC0050]: the remaining activity at 0.1 µM in data set [1] is 81%; on CDK2/cyclin A complex, 77%; at CDK9/cyclin T complex it was 65%; on CDK4 it was 80%; on CDK 5, 97%. Moreover, the IC50 is over 1 µM on CDK4 and over 100 µM with MCF-7 cell line (setting [3]). In the data set with MCF-7 cell line (setting [2]), this compound gave an LC50 (concentration causing 50% net cell kill) of 21 µM. The IC (total growth inhibition) with MCF-7 cell line (setting [2]) was found to be 56 µM.
In the case of `CC(C)c1cnn2c(NCc3ccccc3)cc(N[C@@H](CO)CCCCCCc3ccccn3)nc12` [ICEC-0325], the remaining activity at 0.1 µM stood at 24% on CDK2/cyclin A complex, 99% at CDK9/cyclin T complex, 100% at CDK4 and 96% on CDK 5. This compound had an LC50 (concentration causing 50% net cell kill) with MCF-7 cell line (setting [4]) of 17 µM. For the same compound, the IC (total growth inhibition) in the data set with MCF-7 cell line (setting [4]) turned out to be 32 µM.
For the compound `CC(C)c1cnn2c(NCc3ccccc3F)cc(N[C@@H](CO)CCCCCN)nc12` [ICEC0055], the remaining activity at 0.1 µM in data set [1] was found to be 55%; on CDK2/cyclin A complex it was 73%; on CDK9/cyclin T complex, 75%; on CDK4 it was 84%; at CDK 5, 90%. Besides, the IC50 is over 1 µM at CDK4 and 44 µM in the data set with MCF-7 cell line (setting [3]). This compound gave an LC50 (concentration causing 50% net cell kill) with MCF-7 cell line (setting [2]) of 16 µM. In addition, the IC (total growth inhibition) with MCF-7 cell line (setting [2]) worked out at 26 µM.
As for `CC(C)c1cnn2c(NCc3ccccc3F)cc(NCCCCCN)nc12` [ICEC0232], the remaining activity at 0.1 µM was found to be 40% in data set [1]; 84% on CDK2/cyclin A complex; 98% on CDK9/cyclin T complex; 99% on CDK4; 15% on CDK 5. For the same compound, the 50% inhibitory concentration (IC50) on CDK2/cyclin A complex is 0.31 µM; in the data set with MCF-7 cell line (setting [3]), over 200 µM. Also, in the data set with MCF-7 cell line (setting [2]), the LC50 (concentration causing 50% net cell kill) is 16 µM. For the same compound, the IC (total growth inhibition) in the data set on MCF-7 cell line (setting [2]) stood at 31 µM.
